From PubChem BioAssay (NCI)
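Five concentrations, 48 hours, 96-well plates. Abbreviation: GI50, concentration required for 50% inhibition of growth. At the TGI there is no net growth.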

Experiments:
Assay in all cases: NCI tumour cell line growth inhibition, 48 h
LOX IMVI melanoma = system: LOX IMVI melanoma
SK-MEL-5 melanoma = system: SK-MEL-5 melanoma
NCI-H226 lung = system: NCI-H226 lung
SF-539 CNS = system: SF-539 CNS
SN12C renal = system: SN12C renal
HCC-2998 colon = system: HCC-2998 colon
OVCAR-8 ovarian = system: OVCAR-8 ovarian
NCI/ADR-RES ovarian = system: NCI/ADR-RES ovarian
MDA-MB-435 = system: MDA-MB-435
HS 578T breast = system: HS 578T breast
K-562 leukemia = system: K-562 leukemia
NCI-H23 lung = system: NCI-H23 lung
COLO 205 colon = system: COLO 205 colon
SNB-75 CNS = system: SNB-75 CNS
SK-MEL-2 melanoma = system: SK-MEL-2 melanoma
U251 CNS = system: U251 CNS
SNB-19 CNS = system: SNB-19 CNS
HOP-92 NSCLC = system: HOP-92 NSCLC
RPMI-8226 leukemia = system: RPMI-8226 leukemia
BT-549 breast = system: BT-549 breast
MDA-MB-231 breast = system: MDA-MB-231 breast
UO-31 renal = system: UO-31 renal
HL-60(TB) leukemia = system: HL-60(TB) leukemia
CAKI-1 renal = system: CAKI-1 renal
OVCAR-4 ovarian = system: OVCAR-4 ovarian
SK-MEL-28 melanoma = system: SK-MEL-28 melanoma
HT29 colon = system: HT29 colon
NCI-H522 lung = system: NCI-H522 lung
HOP-62 NSCLC = system: HOP-62 NSCLC
UACC-62 melanoma = system: UACC-62 melanoma
SF-295 CNS = system: SF-295 CNS
A549 NSCLC = system: A549 NSCLC
ACHN renal = system: ACHN renal
CCRF-CEM leukemia = system: CCRF-CEM leukemia
SF-268 CNS = system: SF-268 CNS
OVCAR-5 ovarian = system: OVCAR-5 ovarian
UACC-257 melanoma = system: UACC-257 melanoma
EKVX NSCLC = system: EKVX NSCLC
MOLT-4 leukemia = system: MOLT-4 leukemia
SR leukemia = system: SR leukemia
M14 melanoma = system: M14 melanoma
MALME-3M melanoma = system: MALME-3M melanoma
T-47D breast = system: T-47D breast
NCI-H460 lung = system: NCI-H460 lung
SK-OV-3 ovarian = system: SK-OV-3 ovarian
KM12 colon = system: KM12 colon
MDA-MB-468 breast = system: MDA-MB-468 breast
A498 renal = system: A498 renal
MCF7 breast = system: MCF7 breast
OVCAR-3 ovarian = system: OVCAR-3 ovarian
TK-10 renal = system: TK-10 renal
RXF 393 renal = system: RXF 393 renal
DU-145 prostate = system: DU-145 prostate
HCT-15 colon = system: HCT-15 colon
HCT-116 colon = system: HCT-116 colon
786-0 renal = system: 786-0 renal
PC-3 prostate = system: PC-3 prostate
SW-620 colon = system: SW-620 colon
IGROV1 ovarian = system: IGROV1 ovarian

Q: What does the source list for O=C(c1ccc(Cl)cc1)C(c1c[nH]c2ccccc12)c1c[nH]c2ccccc12?
A: GI50 (LOX IMVI melanoma): 1.68 µM; TGI (LOX IMVI melanoma): 3.26 µM; GI50 (SK-MEL-5 melanoma): 11.3 µM; TGI (SK-MEL-5 melanoma): 23.7 µM; GI50 (NCI-H226 lung): 8.88 µM; TGI (NCI-H226 lung): 24.7 µM; GI50 (SF-539 CNS): 5.53 µM; TGI (SF-539 CNS): 18.8 µM; GI50 (SN12C renal): 3.13 µM; TGI (SN12C renal): 12 µM; GI50 (HCC-2998 colon): 2.33 µM; TGI (HCC-2998 colon): 5.8 µM; GI50 (OVCAR-8 ovarian): 11.2 µM; TGI (OVCAR-8 ovarian): 24.2 µM; GI50 (NCI/ADR-RES ovarian): 3.52 µM; TGI (NCI/ADR-RES ovarian): 15.8 µM; GI50 (MDA-MB-435): 3.85 µM; TGI (MDA-MB-435): 14.3 µM; GI50 (HS 578T breast): 13.4 µM; TGI (HS 578T breast): 45.8 µM; GI50 (K-562 leukemia): 2.99 µM; TGI (K-562 leukemia): 9.64 µM; GI50 (NCI-H23 lung): 4.05 µM; TGI (NCI-H23 lung): 17.4 µM; GI50 (COLO 205 colon): 16.3 µM; TGI (COLO 205 colon): 31.2 µM; GI50 (SNB-75 CNS): 2.43 µM; TGI (SNB-75 CNS): 13.3 µM; GI50 (SK-MEL-2 melanoma): 12.2 µM; TGI (SK-MEL-2 melanoma): 26.1 µM; GI50 (U251 CNS): 10.8 µM; TGI (U251 CNS): 24.1 µM; GI50 (SNB-19 CNS): 15.4 µM; TGI (SNB-19 CNS): 29.6 µM; GI50 (HOP-92 NSCLC): 3.32 µM; TGI (HOP-92 NSCLC): 16.8 µM; GI50 (RPMI-8226 leukemia): 3.01 µM; TGI (RPMI-8226 leukemia): 15.4 µM; GI50 (BT-549 breast): 4.09 µM; TGI (BT-549 breast): 14.4 µM; GI50 (MDA-MB-231 breast): 4.87 µM; TGI (MDA-MB-231 breast): 20.2 µM; GI50 (UO-31 renal): 3.41 µM; TGI (UO-31 renal): 17 µM; GI50 (HL-60(TB) leukemia): 2.6 µM; TGI (HL-60(TB) leukemia): 8.35 µM; GI50 (CAKI-1 renal): 2.94 µM; TGI (CAKI-1 renal): 14.3 µM; GI50 (OVCAR-4 ovarian): 5.23 µM; TGI (OVCAR-4 ovarian): 18.2 µM; GI50 (SK-MEL-28 melanoma): 2.36 µM; TGI (SK-MEL-28 melanoma): 6.42 µM; GI50 (HT29 colon): 2.79 µM; TGI (HT29 colon): 6.97 µM; GI50 (NCI-H522 lung): 1.74 µM; TGI (NCI-H522 lung): 3.52 µM; GI50 (HOP-62 NSCLC): 13 µM; TGI (HOP-62 NSCLC): 27.3 µM; GI50 (UACC-62 melanoma): 4.49 µM; TGI (UACC-62 melanoma): 17.6 µM; GI50 (SF-295 CNS): 12.1 µM; TGI (SF-295 CNS): 24.9 µM; GI50 (A549 NSCLC): 13.5 µM; TGI (A549 NSCLC): 31.6 µM; GI50 (ACHN renal): 1.91 µM; TGI (ACHN renal): 4.17 µM; GI50 (CCRF-CEM leukemia): 3.21 µM; TGI (CCRF-CEM leukemia): > 100 µM; GI50 (SF-268 CNS): 4.85 µM; TGI (SF-268 CNS): 19.8 µM; GI50 (OVCAR-5 ovarian): 3.79 µM; TGI (OVCAR-5 ovarian): 15.5 µM; GI50 (UACC-257 melanoma): 4.93 µM; TGI (UACC-257 melanoma): 18.1 µM; GI50 (EKVX NSCLC): 6.46 µM; TGI (EKVX NSCLC): 20.8 µM; GI50 (MOLT-4 leukemia): 2.69 µM; TGI (MOLT-4 leukemia): 12.2 µM; GI50 (SR leukemia): 2.73 µM; TGI (SR leukemia): 10.9 µM; GI50 (M14 melanoma): 2.9 µM; TGI (M14 melanoma): 12.7 µM; GI50 (MALME-3M melanoma): 3.41 µM; TGI (MALME-3M melanoma): 15.9 µM; GI50 (T-47D breast): 3.01 µM; TGI (T-47D breast): 16 µM; GI50 (NCI-H460 lung): 3.65 µM; TGI (NCI-H460 lung): 14.9 µM; GI50 (SK-OV-3 ovarian): 14.1 µM; TGI (SK-OV-3 ovarian): 27.7 µM; GI50 (KM12 colon): 8.98 µM; TGI (KM12 colon): 22 µM; GI50 (MDA-MB-468 breast): 2.69 µM; TGI (MDA-MB-468 breast): 7.65 µM; GI50 (A498 renal): 18 µM; TGI (A498 renal): 34.1 µM; GI50 (MCF7 breast): 2.38 µM; TGI (MCF7 breast): 8.25 µM; GI50 (OVCAR-3 ovarian): 2.56 µM; TGI (OVCAR-3 ovarian): 7.18 µM; GI50 (TK-10 renal): 18.9 µM; TGI (TK-10 renal): 33.2 µM; GI50 (RXF 393 renal): 2.93 µM; TGI (RXF 393 renal): 9.21 µM; GI50 (DU-145 prostate): 4.36 µM; TGI (DU-145 prostate): 16.4 µM; GI50 (HCT-15 colon): 2.21 µM; TGI (HCT-15 colon): 6.16 µM; GI50 (HCT-116 colon): 1.65 µM; TGI (HCT-116 colon): 3.16 µM; GI50 (786-0 renal): 2.12 µM; TGI (786-0 renal): 4.22 µM; GI50 (PC-3 prostate): 3.08 µM; TGI (PC-3 prostate): 12.7 µM; GI50 (SW-620 colon): 2.99 µM; TGI (SW-620 colon): 9.91 µM; GI50 (IGROV1 ovarian): 4.05 µM; TGI (IGROV1 ovarian): 16.8 µM
